According to ChEMBL document CHEMBL1158666, “Carmabins A and B, new lipopeptides from the Caribbean cyanobacterium Lyngbya majuscula” (J Nat Prod, 1998):
The source made the active and inactive calls. No cut-off for these calls is given here. Square brackets hold non-standard residues; d marks the D form. Peptide text beside a SMILES is read from it. * marks the point of attachment. NMeY = CN[C@@H](Cc1ccc(O)cc1)C(=O)O; NMeF = CN[C@@H](Cc1ccccc1)C(=O)O; X2 = CC(=O)CCCCC(C)CC(C)C(=O)*; X1 = C#CCCCCC(C)CC(C)C(=O)*; NMeA = CN[C@@H](C)C(=O)O

Tested on: NCI60
Experiment: Cytotoxicity against human NCI60 cells
Type: functional, cell-based

Row | SMILES | Activity
1 | C#CCCCCC(C)CC(C)C(=O)N(C)[C@@H](Cc1ccccc1)C(=O)N[C@@H](C)C(=O)N(C)[C@@H](C)C(=O)N(C)[C@@H](Cc1ccc(OC)cc1)C(N)=O (some centres not stated) (X1-[NMeF]A[NMeA][NMeY](Me)-NH2) | inactive
2 | COc1ccc(C[C@@H](C(N)=O)N(C)C(=O)[C@H](C)N(C)C(=O)[C@H](C)NC(=O)[C@H](Cc2ccccc2)N(C)C(=O)C(C)CC(C)CCCCC(C)=O)cc1 (some centres not stated) (X2-[NMeF]A[NMeA][NMeY](Me)-NH2) | inactive
